Laboratory results taken from patent US12371428B2 (Exelixis, Inc., priority 2019, dated 2025).
Structures can show the parent of a compound that is named as a salt.

Assays:
[1] = target: Human MET (residues 956-1390) (Homo sapiens (Human), UniProt P08581); test: Human Met kinase assay, HTRF KinEase (Example D-2); format: biochemical; conditions: protocol of Example D-2 (other compounds); read-out: c-Met IC50
How it was run: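 IC50 values come from a 4-parameter logistic fit of the […] fluorescence ratio, set between DMSO (100%) and reference compound at 1 μM (0%). Reactions held MET 956-1390 at 0.1 ng/well, ATP at Km, biotinylated peptide, 5 mM MgCl2, 1 mM MnCl2, 1 mM DTT and 3% DMSO, and ran 40 min at room temperature before streptavidin-XL665/Eu-antibody detection.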

[2] = target: KDR (phospho-KDR, VEGF165-stimulated HUVEC cells) (Homo sapiens (Human), UniProt P35968); test: KDR autophosphorylation ELISA in HUVEC cells (Example G); format: cell-based; conditions: cellular activity; KDR autophosphorylation ELISA in HUVEC cells
KDR (phospho-KDR, VEGF165-stimulated HUVEC cells), sequence (P35968 20-1356): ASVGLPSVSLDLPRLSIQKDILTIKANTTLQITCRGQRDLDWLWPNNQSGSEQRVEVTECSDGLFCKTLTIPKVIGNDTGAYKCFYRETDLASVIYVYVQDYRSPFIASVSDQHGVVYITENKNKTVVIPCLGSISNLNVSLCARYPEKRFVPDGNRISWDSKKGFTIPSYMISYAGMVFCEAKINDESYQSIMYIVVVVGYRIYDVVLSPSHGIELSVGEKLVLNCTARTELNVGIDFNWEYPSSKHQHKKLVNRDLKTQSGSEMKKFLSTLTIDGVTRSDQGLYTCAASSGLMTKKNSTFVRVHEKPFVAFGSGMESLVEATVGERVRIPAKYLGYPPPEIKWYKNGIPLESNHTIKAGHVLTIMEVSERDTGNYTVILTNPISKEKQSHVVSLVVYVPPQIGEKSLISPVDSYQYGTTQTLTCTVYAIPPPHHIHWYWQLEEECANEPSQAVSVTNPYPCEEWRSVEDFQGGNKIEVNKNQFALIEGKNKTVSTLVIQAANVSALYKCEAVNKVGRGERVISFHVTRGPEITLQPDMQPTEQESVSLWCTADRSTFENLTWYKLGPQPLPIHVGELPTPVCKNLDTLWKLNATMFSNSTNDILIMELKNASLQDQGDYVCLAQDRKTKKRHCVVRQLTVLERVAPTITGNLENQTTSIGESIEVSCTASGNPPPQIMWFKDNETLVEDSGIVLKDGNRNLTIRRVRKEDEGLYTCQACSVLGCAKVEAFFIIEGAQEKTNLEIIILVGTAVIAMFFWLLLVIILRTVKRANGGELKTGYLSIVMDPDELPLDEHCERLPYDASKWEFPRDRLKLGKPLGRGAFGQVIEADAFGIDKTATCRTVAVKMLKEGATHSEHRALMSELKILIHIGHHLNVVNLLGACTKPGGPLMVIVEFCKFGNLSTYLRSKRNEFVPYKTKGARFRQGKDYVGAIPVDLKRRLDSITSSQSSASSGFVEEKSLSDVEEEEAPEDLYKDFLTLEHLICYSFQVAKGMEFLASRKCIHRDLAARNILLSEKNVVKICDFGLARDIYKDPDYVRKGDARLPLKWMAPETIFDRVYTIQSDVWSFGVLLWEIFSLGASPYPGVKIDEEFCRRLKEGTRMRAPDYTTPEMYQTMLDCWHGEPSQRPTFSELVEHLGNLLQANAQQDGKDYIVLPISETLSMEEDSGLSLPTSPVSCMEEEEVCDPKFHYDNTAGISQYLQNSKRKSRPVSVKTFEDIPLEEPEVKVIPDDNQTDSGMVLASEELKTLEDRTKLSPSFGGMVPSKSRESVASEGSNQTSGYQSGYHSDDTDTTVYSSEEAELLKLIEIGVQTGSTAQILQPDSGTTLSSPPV
How it was run: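 Cells seeded, grown 24 h at 37 °C, starved 24 h serum-free; cpd 8-pt curve, 0.3% DMSO, 1 h; VEGF165 100 ng/mL, 5 min; cold PBS wash, lysis with orthovanadate and protease/phosphatase inhibitors; pKDR ELISA; IC50 by 4-parameter logistic regression.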

Human MET (residues 956-1390), sequence (P08581 956-1390): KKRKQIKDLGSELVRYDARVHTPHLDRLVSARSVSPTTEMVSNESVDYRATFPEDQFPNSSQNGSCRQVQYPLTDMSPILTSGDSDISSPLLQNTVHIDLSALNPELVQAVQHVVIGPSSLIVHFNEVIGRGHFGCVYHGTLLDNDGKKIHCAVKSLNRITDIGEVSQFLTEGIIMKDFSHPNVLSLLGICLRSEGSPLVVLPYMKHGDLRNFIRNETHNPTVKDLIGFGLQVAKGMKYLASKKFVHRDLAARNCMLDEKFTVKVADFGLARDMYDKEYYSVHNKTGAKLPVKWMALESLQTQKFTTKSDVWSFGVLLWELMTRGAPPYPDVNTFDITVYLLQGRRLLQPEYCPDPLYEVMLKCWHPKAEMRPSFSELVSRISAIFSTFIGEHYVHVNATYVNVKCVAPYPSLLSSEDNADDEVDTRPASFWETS

IC50 [1] [µM] | IC50 [2] [µM] | SMILES
< 0.1 | < 0.1 | COc1ccc2nccc(Oc3ccc(NC(=O)c4ccc(C)n(-c5ccc(F)cc5)c4=O)cc3F)c2c1 [Compound 346, N-[3-fluoro-4-(6-methoxyquinolin-4-yl)oxyphenyl]-1-(4-fluorophenyl)-6-methyl-2-oxopyridine-3-carboxamide]
< 0.1 | < 0.1 | COc1cc2nccc(Oc3ccc(NC(=O)c4nccn(-c5ccc(F)cc5)c4=O)cc3)c2nc1OC [Compound 384, N-[4-[(6,7-dimethoxy-1,5-naphthyridin-4-yl)oxy]phenyl]-4-(4-fluorophenyl)-3-oxopyrazine-2-carboxamide]
< 0.1 | 0.1 to 0.3 | CCn1cc(C(=O)Nc2ccc(Oc3ccnc4cc(OC)c(OC)nc34)c(F)c2)c(=O)c(-c2ccc(F)cc2)c1CO [Compound 271, N-[4-[(6,7-Dimethoxy-1,5-naphthyridin-4-yl)oxy]-3-fluorophenyl]-1-ethyl-5-(4-fluorophenyl)-6-(hydroxymethyl)-4-oxopyridine-3-carboxamide]
< 0.1 | > 0.3 | COc1cc2nccc(Oc3ccc(NC(=O)C4=C5CCCN5CC(c5ccc(F)cc5)C4=O)cc3F)c2nc1OC (racemic) [Compound 373, N-[4-[(6,7-dimethoxy-1,5-naphthyridin-4-yl)oxy]-3-fluorophenyl]-6-(4-fluorophenyl)-7-oxo-2,3,5,6-tetrahydro-1H-indolizine-8-carboxamide]
> 0.3 | < 0.1 | CCOc1c(C(=O)Nc2ccc(Oc3ccnc4cc(OC)c(OC)nc34)c(F)c2)c(=O)c(-c2ccc(F)cc2)c(C)n1C [Compound 369, N-[4-[(6,7-dimethoxy-1,5-naphthyridin-4-yl)oxy]-3-fluorophenyl]-2-ethoxy-5-(4-fluorophenyl)-1,6-dimethyl-4-oxopyridine-3-carboxamide]
> 0.3 | > 0.3 | COc1cc2nccc(Oc3ccc(NC(=O)c4cn(C)c(C)c(-c5ccc(F)cc5)c4=O)c(F)c3)c2nc1OC [Compound 389, N-[4-[(6,7-dimethoxy-1,5-naphthyridin-4-yl)oxy]-2-fluorophenyl]-5-(4-fluorophenyl)-1,6-dimethyl-4-oxopyridine-3-carboxamide]
< 0.1 | < 0.1 | COc1ccc2nccc(Oc3ccc(NC(=O)c4cnc(C)c(-c5ccc(F)cc5)c4O)cc3F)c2c1 [Compound 347, N-[3-fluoro-4-(6-methoxyquinolin-4-yl)oxyphenyl]-5-(4-fluorophenyl)-4-hydroxy-6-methylpyridine-3-carboxamide]
0.1 to 0.3 | > 0.3 | COc1ccc2nccc(Oc3ccc(NC(=O)c4cn(C)c(C)c(-c5ccc(F)cc5)c4=O)cc3)c2n1 [Compound 356, 5-(4-fluorophenyl)-N-[4-[(6-methoxy-1,5-naphthyridin-4-yl)oxy]phenyl]-1,6-dimethyl-4-oxopyridine-3-carboxamide]
< 0.1 | > 0.3 | COc1cnc2c(Oc3ccc(NC(=O)c4nccn(-c5ccc(F)cc5)c4=O)cc3)ccnc2c1 [Compound 382, 4-(4-fluorophenyl)-N-[4-[(7-methoxy-1,5-naphthyridin-4-yl)oxy]phenyl]-3-oxopyrazine-2-carboxamide]
< 0.1 | > 0.3 | CCn1cc(C(=O)Nc2ccc(Oc3ccnc4cc(OC)c(OC)nc34)cc2)c(=O)c(-c2ccc(F)cc2)c1CO [Compound 272, N-[4-[(6,7-Dimethoxy-1,5-naphthyridin-4-yl)oxy]phenyl]-1-ethyl-5-(4-fluorophenyl)-6-(hydroxymethyl)-4-oxopyridine-3-carboxamide]
< 0.1 | < 0.1 | COc1cc2nccc(Oc3ccc(NC(=O)c4c(C)cc(C)n(-c5ccc(F)cc5)c4=O)cc3F)c2nc1OC [Compound 279, N-[4-[(6,7-Dimethoxy-1,5-naphthyridin-4-yl)oxy]-3-fluorophenyl]-1-(4-fluorophenyl)-4,6-dimethyl-2-oxopyridine-3-carboxamide]
< 0.1 | < 0.1 | COc1cc2nccc(Oc3ccc(NC(=O)c4cc(C(C)C)c(C)n(-c5ccc(F)cc5)c4=O)cc3F)c2nc1OC [Compound 368, N-[4-[(6,7-dimethoxy-1,5-naphthyridin-4-yl)oxy]-3-fluorophenyl]-1-(4-fluorophenyl)-6-methyl-2-oxo-5-propan-2-ylpyridine-3-carboxamide]
< 0.1 | < 0.1 | COc1cc2nccc(Oc3ccc(NC(=O)c4ncc(C)n(-c5ccc(F)cc5C)c4=O)cc3F)c2nc1OC [Compound 393, N-[4-[(6,7-dimethoxy-1,5-naphthyridin-4-yl)oxy]-3-fluorophenyl]-4-(4-fluoro-2-methylphenyl)-5-methyl-3-oxopyrazine-2-carboxamide]
< 0.1 | < 0.1 | COc1cc2nccc(Oc3ccc(NC(=O)c4cn(C)c(CO)c(-c5ccc(F)cc5C)c4=O)cc3F)c2nc1OC [Compound 282, N-[4-[(6,7-Dimethoxy-1,5-naphthyridin-4-yl)oxy]-3-fluorophenyl]-5-(4-fluoro-2-methylphenyl)-6-(hydroxymethyl)-1-methyl-4-oxopyridine-3-carboxamide]
< 0.1 | < 0.1 | COc1ccc2nccc(Oc3ccc(NC(=O)c4c(C)nc(C)c(-c5ccc(F)cc5)c4O)cc3)c2n1 [Compound 340, 5-(4-fluorophenyl)-4-hydroxy-N-[4-[(6-methoxy-1,5-naphthyridin-4-yl)oxy]phenyl]-2,6-dimethylpyridine-3-carboxamide]
< 0.1 | < 0.1 | COc1cc2nccc(Oc3ccc(NC(=O)c4nn(C(C)C)c(C)c(-c5ccc(F)cc5)c4=O)cc3F)c2nc1OC [Compound 364, N-[4-[(6,7-dimethoxy-1,5-naphthyridin-4-yl)oxy]-3-fluorophenyl]-5-(4-fluorophenyl)-6-methyl-4-oxo-1-propan-2-ylpyridazine-3-carboxamide]
< 0.1 | < 0.1 | Cc1cc(C)n(-c2ccc(F)cc2)c(=O)c1C(=O)Nc1ccc(Oc2ccnc3cccnc23)c(F)c1 [Compound 295, N-[3-Fluoro-4-(1,5-naphthyridin-4-yloxy)phenyl]-1-(4-fluorophenyl)-4,6-dimethyl-2-oxopyridine-3-carboxamide]
< 0.1 | < 0.1 | COc1cc2nccc(Oc3ccc(NC(=O)c4cccn(-c5ccc(F)cc5)c4=O)cc3F)c2nc1OC [Compound 293, N-[4-[(6,7-Dimethoxy-1,5-naphthyridin-4-yl)oxy]-3-fluorophenyl]-1-(4-fluorophenyl)-2-oxopyridine-3-carboxamide]
< 0.1 | < 0.1 | Cc1nc(C)c(-c2ccc(F)cc2)c(O)c1C(=O)Nc1ccc(Oc2ccnc3cc(OCc4ccccc4)cnc23)c(F)c1 [Compound 277, 5-(4-Fluorophenyl)-N-[3-fluoro-4-[(7-phenylmethoxy-1,5-naphthyridin-4-yl)oxy]phenyl]-4-hydroxy-2,6-dimethylpyridine-3-carboxamide]
< 0.1 | < 0.1 | COc1cc2nccc(Oc3ccc(NC(=O)c4cn(C)cc(-c5ccc(Cl)cc5)c4=O)cc3F)c2nc1OC [Compound 38, 5-(4-Chlorophenyl)-N-[4-[(6,7-dimethoxy-1,5-naphthyridin-4-yl)oxy]-3-fluorophenyl]-1-methyl-4-oxopyridine-3-carboxamide hydrochloride]
< 0.1 | < 0.1 | Cc1nc(C)n(-c2ccc(F)cc2)c(=O)c1C(=O)Nc1ccc(Oc2ccnc3cc(OCc4ccccc4)cnc23)c(F)c1 [Compound 278, 1-(4-Fluorophenyl)-N-[3-fluoro-4-[(7-phenylmethoxy-1,5-naphthyridin-4-yl)oxy]phenyl]-2,4-dimethyl-6-oxopyrimidine-5-carboxamide]
< 0.1 | < 0.1 | COc1ccc2nccc(Oc3ccc(NC(=O)c4c(C)nc(C)c(-c5ccc(F)cc5)c4O)cc3F)c2c1 [Compound 345, N-[3-fluoro-4-(6-methoxyquinolin-4-yl)oxyphenyl]-5-(4-fluorophenyl)-4-hydroxy-2,6-dimethylpyridine-3-carboxamide]
< 0.1 | > 0.3 | COc1cc2nccc(Oc3c(F)cc(NC(=O)c4cn(C)c(C)c(-c5ccc(F)cc5)c4=O)cc3F)c2nc1OC [Compound 392, N-[4-[(6,7-dimethoxy-1,5-naphthyridin-4-yl)oxy]-3,5-difluorophenyl]-5-(4-fluorophenyl)-1,6-dimethyl-4-oxopyridine-3-carboxamide]
< 0.1 | 0.1 to 0.3 | COc1cnc2c(Oc3ccc(NC(=O)c4cnc(C)n(-c5ccc(F)cc5)c4=O)cc3F)ccnc2c1 [Compound 265, N-[3-Fluoro-4-[(7-methoxy-1,5-naphthyridin-4-yl)oxy]phenyl]-1-(4-fluorophenyl)-2-methyl-6-oxopyrimidine-5-carboxamide]
< 0.1 | < 0.1 | COc1cc2nccc(Oc3ccc(NC(=O)c4cn(C)c(C)c(-c5ccc(F)cc5)c4=O)c(F)c3F)c2nc1OC [Compound 390, N-[4-[(6,7-dimethoxy-1,5-naphthyridin-4-yl)oxy]-2,3-difluorophenyl]-5-(4-fluorophenyl)-1,6-dimethyl-4-oxopyridine-3-carboxamide]
0.1 to 0.3 | < 0.1 | COc1ccc2nccc(Oc3ccc(NC(=O)c4ccc(C)n(-c5ccc(F)cc5C)c4=O)cc3)c2n1 [Compound 276, 1-(4-Fluoro-2-methylphenyl)-N-[4-[(6-methoxy-1,5-naphthyridin-4-yl)oxy]phenyl]-6-methyl-2-oxopyridine-3-carboxamide]
